The test system of the assay is BDF1 mice, B16 melanoma s.c., survival/tumor T/C. Briefly: NCI In Vivo Anticancer Drug Screen. Data for tumor model B16 Melanoma (subcutaneous) in B6D2F1 (BDF1) mice. As for the experimental part:
The antitumor activity of compounds was measured in mice bearing transplantable tumors. Survival or tumor size were measured and the results are expressed as the measurement made in the treated group (T) divided by the measurement made in the vehicle treated control group (C). The tumor model used in this assay is B16 Melanoma (subcutaneous) in B6D2F1 (BDF1) mice

Where [1] appears, read: endpoint: median survival time, dose: 40.0 mg/kg/injection, schedule: Q01DX009 (ip), vehicle: Klucel (hydroxypropylcellulose) (HPC), higher = longer survival.
[2] abbreviates: endpoint: median survival time, dose: 80.0 mg/kg/injection, schedule: Q01DX009 (ip), vehicle: Klucel (hydroxypropylcellulose) (HPC), higher = longer survival.
Where [3] appears, read: endpoint: median survival time, dose: 160.0 mg/kg/injection, schedule: Q01DX009 (ip), vehicle: Klucel (hydroxypropylcellulose) (HPC), higher = longer survival.

Each structure is given as a SMILES string. Where “and” joins values, the source holds several entries; their conditions need not be identical. Equal values may be shown once. Inconclusive results are not listed. *1 amine or outer side, *2 acyl side, *3 side chain or, on linkers, in order; H or OH if unused. Where a SMILES comes first, the peptide text is derived from it. Bridges are numbered along the chain shown (N, C = ends). Roman numbers before positions name the chains, in order. [ ]: non-standard residue; d: D form. Actinocin(9to1) = Cc1c2oc3c(C)ccc(C(=O)[*:1])c3nc-2c(C(=O)[*:2])c(N)c1=O; aThr = C[C@H](O)[C@H](N)C(=O)O; NMeV = CN[C@H](C(=O)O)C(C)C; Sar = CNCC(=O)O

With `Cc1c2oc3c(C)ccc(C(=O)N[C@@H]4C(=O)N[C@H](C(C)C)C(=O)N5CCC[C@H]5C(=O)N(C)CC(=O)N(C)[C@@H](C(C)C)C(=O)O[C@H]4C)c3nc-2c(C(=O)N[C@@H]2C(=O)N[C@H](C(C)C)C(=O)N3CCC[C@H]3C(=O)N(C)CC(=O)N(C)[C@@H](C(C)C)C(=O)O[C@H]2C)c(N)c1=O` (I: [aThr][dV]P[Sar][NMeV] / II: [aThr][dV]P[Sar][NMeV]; ester I:1-I:C, II:1-II:C; linker I:N-II:N via Actinocin(9to1)), the T/C (endpoint: median tumor weight (est.), dose: 100.0 micrograms/kg/injection, schedule: Q01DX009 (ip), vehicle: saline, higher = larger tumour) is 38 % of control.
For the compound `O=NN(CCCl)C(=O)NC1[C@H](O)CCC[C@@H]1O` (stereo partly specified), the T/C runs as follows: (endpoint: median survival time, dose: 1.56 mg/kg/injection, schedule: Q01DX007 (ip), vehicle: water, higher = longer survival) 95 % of control; (endpoint: median survival time, dose: 2.59 mg/kg/injection, schedule: Q01DX007 (ip), vehicle: water, higher = longer survival) 108 % of control; (endpoint: median survival time, dose: 4.32 mg/kg/injection, schedule: Q01DX007 (ip), vehicle: water, higher = longer survival) 114 % of control.
For `Cc1c(N)nc(C(CC(N)=O)NCC(N)C(N)=O)nc1C(=O)NC(C(=O)NC(C)C(O)C(C)C(=O)NC(C(=O)NCCc1nc(-c2nc(C(=O)NCCCNCCCc3ccccn3)cs2)cs1)C(C)O)C(OC1OC(CO)C(O)C(O)C1OC1OC(CO)C(O)C(OC(N)=O)C1O)c1cnc[nH]1` (stereo unspecified), the T/C runs as follows: (endpoint: median survival time, dose: 0.1 mg/kg/injection, schedule: Q01DX010 (ip), vehicle: water, higher = longer survival) 101 % of control; (endpoint: median survival time, dose: 0.2 mg/kg/injection, schedule: Q01DX010 (ip), vehicle: water, higher = longer survival) 116 % of control and 124 % of control; (endpoint: median survival time, dose: 0.4 mg/kg/injection, schedule: Q01DX010 (ip), vehicle: water, higher = longer survival) 96 % of control and 124 % of control; (endpoint: median survival time, dose: 1.6 mg/kg/injection, schedule: Q01DX010 (ip), vehicle: water, higher = longer survival) 117 % of control; (endpoint: median survival time, dose: 3.2 mg/kg/injection, schedule: Q01DX010 (ip), vehicle: water, higher = longer survival) 88 % of control.
On to `COC1=C2C[C@@H](C)C[C@@H](OC)[C@@H](O)[C@H](C)/C=C(\C)[C@@H](OC(N)=O)[C@H](OC)/C=C\C=C(/C)C(=O)NC(=CC1=O)C2=O`, for which the T/C reads like this: (endpoint: median survival time, dose: 0.5 mg/kg/injection, schedule: Q01DX005 (ip), vehicle: water, higher = longer survival) 118 % of control; (endpoint: median survival time, dose: 1.0 mg/kg/injection, schedule: Q01DX005 (ip), vehicle: water, higher = longer survival) 105 % of control.
Consider `CC1(C)N=C(N)N=C(N)N1c1ccc(CCCCc2ccc(Cl)c(S(=O)(=O)F)c2)c(Cl)c1`, for which the T/C by setting is: (endpoint: median survival time, dose: 8.0 mg/kg/injection, schedule: Q01DX009 (ip), vehicle: saline, higher = longer survival) 119 % of control; (endpoint: median survival time, dose: 12.0 mg/kg/injection, schedule: Q01DX009 (ip), vehicle: saline, higher = longer survival) 110 % of control; (endpoint: median survival time, dose: 18.0 mg/kg/injection, schedule: Q01DX009 (ip), vehicle: saline, higher = longer survival) 107 % of control; (endpoint: median survival time, dose: 27.0 mg/kg/injection, schedule: Q01DX009 (ip), vehicle: saline, higher = longer survival) 94 % of control.
Consider `CC1(C)N=C(N)N=C(N)N1c1ccc(OCCOc2ccc(S(=O)(=O)F)cc2)c(Cl)c1`, for which the T/C is, setting by setting: (endpoint: median survival time, dose: 12.5 mg/kg/injection, schedule: Q04DX003 (ip), vehicle: saline, higher = longer survival) 104 % of control; (endpoint: median survival time, dose: 25.0 mg/kg/injection, schedule: Q04DX003 (ip), vehicle: saline, higher = longer survival) 104 % of control; (endpoint: median survival time, dose: 100.0 mg/kg/injection, schedule: Q04DX003 (ip), vehicle: saline, higher = longer survival) 109 % of control.
As to `CN(C)c1nc(N(C)C)nc(N(C)C)n1`, the T/C was 115 % of control (endpoint: median survival time, dose: 20.0 mg/kg/injection, schedule: Q01DX009 (ip), vehicle: Klucel (hydroxypropylcellulose) (HPC), higher = longer survival); 118 % of control under setting [1]; 111 % of control under setting [2]; 115 % of control under setting [3].
With `COC(=O)Nc1cccc(-c2nc3ccc(NC(=O)OC)cc3c(=O)n2-c2ccccc2)c1`, the T/C by setting is: (endpoint: median survival time, dose: 50.0 mg/kg/injection, schedule: Q04DX005 (ip), vehicle: other, higher = longer survival) 99 % of control; (endpoint: median survival time, dose: 100.0 mg/kg/injection, schedule: Q04DX005 (ip), vehicle: other, higher = longer survival) 115 % of control; (endpoint: median survival time, dose: 100.0 mg/kg/injection, schedule: Q04DX005 (oral), vehicle: other, higher = longer survival) 102 % of control; (endpoint: median survival time, dose: 200.0 mg/kg/injection, schedule: Q04DX005 (oral), vehicle: other, higher = longer survival) 94 % of control.
Take `CCCCCCCC(=O)OCC(=O)[C@]1(O)Cc2c(O)c3c(c(O)c2[C@@H](OC2CC(N)C(O)C(C)O2)C1)C(=O)c1c(OC)cccc1C3=O` (stereo partly specified): the T/C was 98 % of control (endpoint: median survival time, dose: 0.5 mg/kg/injection, schedule: Q01DX009 (ip), vehicle: saline with Tween-80, higher = longer survival) and 109 % of control (endpoint: median survival time, dose: 1.0 mg/kg/injection, schedule: Q01DX009 (ip), vehicle: saline with Tween-80, higher = longer survival).
For `CCCCNCCCNCCCNC(=O)c1csc(-c2csc(CCNC(=O)C(NC(=O)C(C)C(O)C(C)NC(=O)C(NC(=O)c3nc(C(CC(N)=O)NCC(N)C(N)=O)nc(N)c3C)C(OC3OC(CO)C(O)C(O)C3OC3OC(CO)C(O)C(OC(N)=O)C3O)c3cnc[nH]3)C(C)O)n2)n1` (stereo unspecified), the T/C (endpoint: median survival time, dose: 0.31 mg/kg/injection, schedule: Q01DX009 (ip), vehicle: water, higher = longer survival) was 86 % of control; the T/C (endpoint: median survival time, dose: 0.62 mg/kg/injection, schedule: Q01DX009 (ip), vehicle: water, higher = longer survival) is 154 % of control; the T/C (endpoint: median survival time, dose: 1.25 mg/kg/injection, schedule: Q01DX009 (ip), vehicle: water, higher = longer survival) is 120 % of control; the T/C (endpoint: median survival time, dose: 2.5 mg/kg/injection, schedule: Q01DX009 (ip), vehicle: water, higher = longer survival) was 122 % of control; the T/C (endpoint: median survival time, dose: 5.0 mg/kg/injection, schedule: Q01DX009 (ip), vehicle: water, higher = longer survival) was 158 % of control.
As for `O=C1C=CC(=O)O1` (tested in a mixture with another compound), the T/C was 92 % of control (endpoint: median survival time, dose: 6.25 mg/kg/injection, schedule: Q01DX009 (ip), vehicle: other, higher = longer survival); 101 % of control (endpoint: median survival time, dose: 12.5 mg/kg/injection, schedule: Q01DX009 (ip), vehicle: other, higher = longer survival); 120 % of control (endpoint: median survival time, dose: 25.0 mg/kg/injection, schedule: Q01DX009 (ip), vehicle: other, higher = longer survival).
For the compound `CNNCc1ccc(C(=O)NC(C)C)cc1`, the T/C is, setting by setting: under setting [1], 102 % of control; under setting [2], 113 % of control; under setting [3], 102 % of control and 115 % of control; (endpoint: median survival time, dose: 320.0 mg/kg/injection, schedule: Q01DX009 (ip), vehicle: Klucel (hydroxypropylcellulose) (HPC), higher = longer survival) 95 % of control.
As to `COC(=O)c1csc(-c2csc(CCN)n2)n1`, the T/C is 89 % of control (endpoint: median survival time, dose: 6.25 mg/kg/injection, schedule: Q01DX009 (ip), vehicle: water, higher = longer survival); 98 % of control (endpoint: median survival time, dose: 12.5 mg/kg/injection, schedule: Q01DX009 (ip), vehicle: water, higher = longer survival); 91 % of control (endpoint: median survival time, dose: 25.0 mg/kg/injection, schedule: Q01DX009 (ip), vehicle: water, higher = longer survival); 117 % of control (endpoint: median survival time, dose: 50.0 mg/kg/injection, schedule: Q01DX009 (ip), vehicle: water, higher = longer survival); 102 % of control (endpoint: median survival time, dose: 100.0 mg/kg/injection, schedule: Q01DX009 (ip), vehicle: water, higher = longer survival).
In the case of `CO[C@H](C(=O)[C@@H](O)[C@@H](C)O)[C@@H]1Cc2cc3cc(OC4CC(OC5CC(O)C(O)C(C)O5)C(O)C(C)O4)c(C)c(O)c3c(O)c2C(=O)[C@H]1OC1CC(OC2CC(OC3CC(C)(O)C(O)C(C)O3)C(O)C(C)O2)C(O)C(C)O1` (stereo partly specified), the T/C is 100 % of control (endpoint: median survival time, dose: 0.12 mg/kg/injection, schedule: Q01DX009 (ip), vehicle: saline, higher = longer survival); 114 % of control (endpoint: median survival time, dose: 0.25 mg/kg/injection, schedule: Q01DX009 (ip), vehicle: saline, higher = longer survival); 116 % of control (endpoint: median survival time, dose: 0.5 mg/kg/injection, schedule: Q01DX009 (ip), vehicle: saline, higher = longer survival); 118 % of control (endpoint: median survival time, dose: 1.0 mg/kg/injection, schedule: Q01DX009 (ip), vehicle: saline, higher = longer survival); 104 % of control (endpoint: median survival time, dose: 3.8 micrograms/kg/injection, schedule: Q01DX009 (ip), vehicle: water, higher = longer survival); 107 % of control (endpoint: median survival time, dose: 7.5 micrograms/kg/injection, schedule: Q01DX009 (ip), vehicle: water, higher = longer survival). Further, the T/C runs as follows: (endpoint: median survival time, dose: 15.0 micrograms/kg/injection, schedule: Q01DX009 (ip), vehicle: water, higher = longer survival) 101 % of control; (endpoint: median survival time, dose: 30.0 micrograms/kg/injection, schedule: Q01DX009 (ip), vehicle: water, higher = longer survival) 114 % of control; (endpoint: median survival time, dose: 60.0 micrograms/kg/injection, schedule: Q01DX009 (ip), vehicle: water, higher = longer survival) 93 % of control; (endpoint: median survival time, dose: 120.0 micrograms/kg/injection, schedule: Q01DX009 (ip), vehicle: water, higher = longer survival) 91 % of control; (endpoint: median survival time, dose: 250.0 micrograms/kg/injection, schedule: Q01DX009 (ip), vehicle: water, higher = longer survival) 86 % of control.
